As usually defined, the IC50 is the concentration needed to halve the response being measured. For orientation: efflux ratio means a quotient of directional permeabilities that is used to spot active efflux.

The record followed here is patent US20210228545A1, “METHODS OF TREATING CONDITIONS RELATED TO THE S1P1 RECEPTOR” (Arena Pharmaceuticals, Inc., priority 2018, published 2021).

The target in series [1] is CYP1A2 (Homo sapiens, UniProt P05177). Put plainly: Direct inhibition of CYP activity in human liver microsomes. The class given is in vitro ADME. The conditions noted are these: up to 10 μM. From the text: (§1) Known metabolism-dependent and/or direct inhibitors of CYP and UGT enzymes were included as positive controls, as applicable.
Chain of CYP1A2 (P05177 whole entry): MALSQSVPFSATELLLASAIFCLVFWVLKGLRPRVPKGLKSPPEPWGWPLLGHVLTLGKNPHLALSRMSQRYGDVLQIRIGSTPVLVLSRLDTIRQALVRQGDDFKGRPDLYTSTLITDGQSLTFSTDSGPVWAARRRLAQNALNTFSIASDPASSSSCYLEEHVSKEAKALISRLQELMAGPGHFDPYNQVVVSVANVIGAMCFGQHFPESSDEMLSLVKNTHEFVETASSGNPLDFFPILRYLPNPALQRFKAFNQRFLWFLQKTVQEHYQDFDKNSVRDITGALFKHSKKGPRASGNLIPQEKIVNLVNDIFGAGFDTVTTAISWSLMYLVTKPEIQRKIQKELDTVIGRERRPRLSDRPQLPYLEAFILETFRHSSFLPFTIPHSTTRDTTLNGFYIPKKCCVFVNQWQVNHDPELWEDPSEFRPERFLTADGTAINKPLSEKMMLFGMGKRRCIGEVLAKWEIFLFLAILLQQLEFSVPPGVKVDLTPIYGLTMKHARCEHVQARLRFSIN
For orientation: Liver microsomes are vesicles of endoplasmic reticulum, rich in cytochrome P450 enzymes.

The target in series [2] is T1, CYP2B6 (Homo sapiens, UniProt P20813).
T1 construct: human liver microsomes from a pool of 200 individuals; from tissue; host or cells: human liver microsomes, pool of 200 individuals
T1 sequence (P20813 whole entry): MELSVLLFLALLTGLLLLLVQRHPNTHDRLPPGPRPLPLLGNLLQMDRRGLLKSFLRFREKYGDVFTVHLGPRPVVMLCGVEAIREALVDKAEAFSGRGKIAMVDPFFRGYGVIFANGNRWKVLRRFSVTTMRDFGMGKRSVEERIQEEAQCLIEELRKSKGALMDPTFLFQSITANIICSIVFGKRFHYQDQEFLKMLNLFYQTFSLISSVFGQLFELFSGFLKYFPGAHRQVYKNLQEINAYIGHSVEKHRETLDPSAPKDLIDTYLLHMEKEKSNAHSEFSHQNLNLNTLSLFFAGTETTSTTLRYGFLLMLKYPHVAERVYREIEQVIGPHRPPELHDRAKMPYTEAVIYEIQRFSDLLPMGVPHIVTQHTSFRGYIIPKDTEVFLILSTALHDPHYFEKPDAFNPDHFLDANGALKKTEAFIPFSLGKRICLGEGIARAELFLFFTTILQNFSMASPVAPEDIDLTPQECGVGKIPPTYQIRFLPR
The series is described as above. The class given is in vitro ADME. To be noted: up to 10 μM.
Excerpt: as §1

For series [3], the target named is T2, CYP2C19 (Homo sapiens, UniProt P33261).
T2 construct: human liver microsomes from a pool of 200 individuals; from tissue; host or cells: human liver microsomes, pool of 200 individuals
T2 sequence (P33261 whole entry): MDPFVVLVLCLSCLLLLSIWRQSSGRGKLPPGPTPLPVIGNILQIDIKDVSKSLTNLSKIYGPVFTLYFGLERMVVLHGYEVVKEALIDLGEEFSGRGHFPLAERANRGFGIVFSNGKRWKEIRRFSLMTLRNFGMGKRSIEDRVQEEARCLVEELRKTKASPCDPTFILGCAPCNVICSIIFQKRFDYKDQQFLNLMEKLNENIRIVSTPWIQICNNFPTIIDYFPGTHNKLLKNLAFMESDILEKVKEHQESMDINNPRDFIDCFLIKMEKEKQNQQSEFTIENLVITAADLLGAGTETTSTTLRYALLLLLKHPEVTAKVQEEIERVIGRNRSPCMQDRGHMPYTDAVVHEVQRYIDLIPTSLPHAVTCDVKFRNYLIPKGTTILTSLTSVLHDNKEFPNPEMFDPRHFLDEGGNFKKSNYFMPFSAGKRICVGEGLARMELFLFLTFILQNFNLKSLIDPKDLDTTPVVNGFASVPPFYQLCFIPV
Described as above. The class given is in vitro ADME. To be noted: up to 10 μM.
Excerpt: as §1

The target in series [4] is T3, CYP2C9 (Homo sapiens, UniProt P11712).
T3 construct: human liver microsomes from a pool of 200 individuals; from tissue; host or cells: human liver microsomes, pool of 200 individuals
T3 sequence (P11712 whole entry): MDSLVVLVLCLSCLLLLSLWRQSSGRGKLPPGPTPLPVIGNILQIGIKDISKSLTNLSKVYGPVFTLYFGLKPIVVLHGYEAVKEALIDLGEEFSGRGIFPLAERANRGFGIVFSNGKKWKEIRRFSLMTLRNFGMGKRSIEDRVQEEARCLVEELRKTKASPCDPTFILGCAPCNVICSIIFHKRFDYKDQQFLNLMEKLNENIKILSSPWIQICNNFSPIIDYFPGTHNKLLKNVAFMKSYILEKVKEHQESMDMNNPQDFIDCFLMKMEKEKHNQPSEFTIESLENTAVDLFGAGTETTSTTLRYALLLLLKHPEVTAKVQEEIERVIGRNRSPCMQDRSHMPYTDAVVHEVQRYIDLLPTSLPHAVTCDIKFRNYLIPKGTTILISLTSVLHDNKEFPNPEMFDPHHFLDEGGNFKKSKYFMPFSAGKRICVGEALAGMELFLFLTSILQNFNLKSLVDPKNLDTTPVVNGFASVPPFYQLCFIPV
Described as above. The class given is in vitro ADME. The conditions noted are these: up to 10 μM.
Excerpt: as §1

Series [5] deals with T4, CYP2D6 (Homo sapiens, UniProt P10635).
T4 construct: human liver microsomes from a pool of 200 individuals; from tissue; host or cells: human liver microsomes, pool of 200 individuals
T4 sequence (P10635 whole entry): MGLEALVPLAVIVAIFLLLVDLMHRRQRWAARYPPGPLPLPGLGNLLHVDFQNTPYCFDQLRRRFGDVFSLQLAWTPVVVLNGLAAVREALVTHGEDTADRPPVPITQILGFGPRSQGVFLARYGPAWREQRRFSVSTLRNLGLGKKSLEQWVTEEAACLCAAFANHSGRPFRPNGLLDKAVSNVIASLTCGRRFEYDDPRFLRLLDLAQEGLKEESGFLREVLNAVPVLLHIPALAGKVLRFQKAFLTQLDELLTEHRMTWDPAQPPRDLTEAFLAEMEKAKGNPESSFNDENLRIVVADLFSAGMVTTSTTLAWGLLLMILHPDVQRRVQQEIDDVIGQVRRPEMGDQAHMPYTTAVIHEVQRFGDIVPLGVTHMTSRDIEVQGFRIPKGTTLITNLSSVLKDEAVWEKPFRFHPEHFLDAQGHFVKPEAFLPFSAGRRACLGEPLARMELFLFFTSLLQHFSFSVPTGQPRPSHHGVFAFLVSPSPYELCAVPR
The description is as above. The class given is in vitro ADME. The conditions noted are these: up to 10 μM.
Excerpt: as §1

Series [6] addresses T5, OATP1B3 (Homo sapiens, UniProt Q9NPD5).
T5 construct: expressed in transfected cells; host or cells: HEK293
T5 sequence (Q9NPD5 1-702): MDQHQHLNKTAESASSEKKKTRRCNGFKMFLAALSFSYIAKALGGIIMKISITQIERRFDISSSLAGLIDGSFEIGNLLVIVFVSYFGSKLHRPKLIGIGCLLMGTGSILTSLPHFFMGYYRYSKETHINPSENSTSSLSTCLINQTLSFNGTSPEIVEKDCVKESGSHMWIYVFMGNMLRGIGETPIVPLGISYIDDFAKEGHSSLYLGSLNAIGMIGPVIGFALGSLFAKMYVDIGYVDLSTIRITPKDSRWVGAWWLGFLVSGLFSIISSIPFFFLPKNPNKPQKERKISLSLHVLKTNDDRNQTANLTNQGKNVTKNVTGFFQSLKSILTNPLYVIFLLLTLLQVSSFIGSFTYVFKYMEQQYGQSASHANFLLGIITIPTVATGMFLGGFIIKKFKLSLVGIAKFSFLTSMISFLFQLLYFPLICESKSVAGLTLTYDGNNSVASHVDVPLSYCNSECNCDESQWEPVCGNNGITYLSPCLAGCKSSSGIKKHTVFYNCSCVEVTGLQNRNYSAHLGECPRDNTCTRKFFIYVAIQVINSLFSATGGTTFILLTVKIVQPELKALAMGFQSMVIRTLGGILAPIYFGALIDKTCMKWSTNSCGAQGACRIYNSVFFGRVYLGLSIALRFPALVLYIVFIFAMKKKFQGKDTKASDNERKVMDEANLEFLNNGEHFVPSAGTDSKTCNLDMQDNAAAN
Description: Transporter inhibition, HEK293 cells. The class given is in vitro ADME.

Series [7] concerns the target T6, OAT3 (Homo sapiens, UniProt Q8TCC7).
T6 construct: expressed in transfected cells; host or cells: HEK293
T6 sequence (Q8TCC7 1-542): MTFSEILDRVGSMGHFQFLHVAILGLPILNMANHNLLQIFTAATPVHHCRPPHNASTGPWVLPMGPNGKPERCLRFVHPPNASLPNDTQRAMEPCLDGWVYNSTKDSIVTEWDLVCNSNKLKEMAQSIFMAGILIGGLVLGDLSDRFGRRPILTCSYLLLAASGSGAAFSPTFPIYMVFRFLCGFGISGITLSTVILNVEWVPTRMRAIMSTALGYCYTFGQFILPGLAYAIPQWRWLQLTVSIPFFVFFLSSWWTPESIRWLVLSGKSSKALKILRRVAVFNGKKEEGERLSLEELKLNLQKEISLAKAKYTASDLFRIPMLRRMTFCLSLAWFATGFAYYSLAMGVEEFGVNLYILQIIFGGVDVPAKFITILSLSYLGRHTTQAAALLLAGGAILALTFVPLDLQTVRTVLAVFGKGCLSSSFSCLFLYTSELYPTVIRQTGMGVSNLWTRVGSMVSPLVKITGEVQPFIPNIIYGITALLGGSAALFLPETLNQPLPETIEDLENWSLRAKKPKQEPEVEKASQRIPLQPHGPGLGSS
Put plainly: Transporter inhibition, HEK293 cells. Type of series: in vitro ADME.

The target of series [8] is T7, BCRP (Homo sapiens, UniProt Q9UNQ0).
T7 sequence (Q9UNQ0 1-655): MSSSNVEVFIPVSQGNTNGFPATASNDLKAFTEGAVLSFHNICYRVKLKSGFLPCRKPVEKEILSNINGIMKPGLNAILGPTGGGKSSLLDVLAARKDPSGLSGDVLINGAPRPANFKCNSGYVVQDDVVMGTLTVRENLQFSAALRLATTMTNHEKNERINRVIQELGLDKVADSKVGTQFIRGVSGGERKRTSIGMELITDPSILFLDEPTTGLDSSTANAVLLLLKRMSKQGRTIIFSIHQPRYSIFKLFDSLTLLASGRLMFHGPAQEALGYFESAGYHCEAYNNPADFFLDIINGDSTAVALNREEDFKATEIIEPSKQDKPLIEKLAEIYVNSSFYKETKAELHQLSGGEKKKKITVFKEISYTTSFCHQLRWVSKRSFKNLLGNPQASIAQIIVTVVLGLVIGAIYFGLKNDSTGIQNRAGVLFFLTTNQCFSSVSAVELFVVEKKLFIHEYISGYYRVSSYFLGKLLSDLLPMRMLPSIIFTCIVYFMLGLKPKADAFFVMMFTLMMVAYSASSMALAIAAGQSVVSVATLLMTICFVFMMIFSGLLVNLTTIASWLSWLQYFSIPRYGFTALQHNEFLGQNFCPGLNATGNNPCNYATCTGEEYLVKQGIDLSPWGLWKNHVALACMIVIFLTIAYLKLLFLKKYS
Description: Transporter substrate evaluation, MDCKII-BCRP cells. Type of series: in vitro ADME.

Series [9] addresses T6, OAT3. Description: Transporter substrate evaluation, HEK293 cells. Type of series: in vitro ADME. The conditions noted are these: 1 and 10 μM.
A short description of series [10]: In vitro metabolism studies and human mass balance clinical study. The conditions noted are these: oxidative (CYP2C8, CYP2C9) and conjugation (UGT1A7, minor UGT1A1, UGT1A4) pathways. The class given is in vivo. From the text: Compound 1 is eliminated from the systemic circulation mainly due to metabolism and biliary/fecal excretion.
For series [11] the following is noted: in vivo.

Structures are written as SMILES.

Turning to `O=C(O)C[C@H]1CCc2c1[nH]c1ccc(OCc3ccc(C4CCCC4)c(C(F)(F)F)c3)cc21` [Compound 1, (R)-2-(7-(4-cyclopentyl-3-(trifluoromethyl)benzyloxy)-1,2,3,4-tetrahydrocyclopenta[b]indol-3-yl)acetic acid], the “Direct inhibition of CYP1A2 activity” value in series [1] was “Little or no direct inhibition”. The “Direct inhibition of CYP2B6 activity” value in series [2] is “Little or no direct inhibition”. In series [3], the “Direct inhibition of CYP2C19 activity” value is “Little or no direct inhibition”. Besides, the “Direct inhibition of CYP2C9 activity” value in [4] is listed as “Little or no direct inhibition”. Also, the “Direct inhibition of CYP2D6 activity” value in [5] is on record as “Little or no direct inhibition”. Further, the “Reduction of uptake rate of estradiol-17β-glucuronide into OATP1B3-expressing cells (inhibition)” value in [6] (1 and 10 μM) is given as “less than 50%”. For the same molecule, the IC50 in [6] (HEK293 cells, [3H]-estradiol-17β-glucuronide (50 nM), 1 and 10 μM tested) is greater than 10 µM; in series [7] (HEK293 cells, [3H]-estrone-3-sulfate (50 nM), 1 and 10 μM tested), greater than 10 µM. Moreover, the “Reduction of uptake rate of estrone-3-sulfate into OAT3-expressing cells (inhibition)” value in series [7] (1 and 10 μM) is on record as “less than 50%”. Further, the “Efflux ratio of Compound 1 across MDCKII-BCRP cells” value in series [8] (1 μM, absence and presence of Ko143 (1 μM)) was “less than two”. Moreover, the efflux ratio at 10 μM in [8] (human, 10 μM) was 7.36. The molecule also registered a recovery in series [8] (human, MDCKII-BCRP assay) of 27 to 48%. Further, the “Potential substrate of OAT3” value in series [9] (HEK293 cells) was “not a substrate of OAT3 and not a substrate and No”. Also, the “Uptake ratio into OAT3-expressing cells” value in [9] (absence and presence of probenecid (100 μM)) is “below two”. For the same molecule, the “Extent of metabolism (overall)” value in series [10] was greater than 25%. Besides, the “Gender difference in mean plasma concentrations and exposure parameters” value in series [11] is reported as “only moderately higher in females compared to males”.
